{"source": "patent US20090291883A1", "about": "“COMBINATION OF AN IMMUNOSUPPRESSIVE AGENT AND NONSTEROIDAL ANTI -INFLAMMATORY DRUGS TO TREAT DISEASE” (BOSTON MEDICAL CENTER CORPORATION, priority 2006, published 2009)", "key": {"[1]": {"test_system": "villous adenomas of the cecum", "conditions": "30 mg weekly, for up to 20 months; cited from earlier work"}, "sporadic colonic polyps": {"test_system": "sporadic colonic polyps", "conditions": "cited from earlier work; for regression of adenomatous polyps, small pilot study: sporadic colonic polyps"}, "colorectal cancer": {"test_system": "colorectal cancer", "conditions": "chronic aspirin use; cited from earlier work"}, "colonic polyps": {"test_system": "colonic polyps", "conditions": "daily dose of 300 mg, taken systemically; cited from earlier work"}, "flat colorectal mucosa": {"test_system": "flat colorectal mucosa", "conditions": "after treatment with sulindac, FAP subjects; cited from earlier work"}, "[2]": {"test_system": "HT-29 colon adenocarcinoma cell line", "conditions": "following sulindac administration; cited from earlier work"}, "[3]": {"conditions": "given orally as a tablet; cited from earlier work"}, "[4]": {"test_system": "MC-26 colorectal cancer cells", "experiment": "Subcutaneous MC-26 colorectal cancer tumor growth in BALB/c mice", "type": "in vivo", "procedure": "(§1) A second control group included mice that were not injected with tumor cells and received no treatment.\n(§2) Skin from donor B6 black mice was transplanted to recipient white BALB/c mice. […] To determine the effects of these agents on secondary tumor development, BALB/c mice were also injected subcutaneously with MC-26 colorectal cancer cells and were treated for 22 days with the above regimens. A second control group included mice that were not injected with tumor cells and received no treatment.\n(§3) The inventors subcutaneously injected 2×10^4 MC-26 cells (mouse colorectal adenocarcinoma cell line) into the flanks of 6-8 week old BALB/c mice. Tumor volume was measured at regular intervals during a period of 22 days. […] Skin xenografts from donor black B6 mice were simultaneously transplanted to the backs of the mice."}, "[5]": {"experiment": "Body weight change of MC-26 tumor-bearing BALB/c mice, day 0 to day 22", "type": "in vivo", "conditions": "compared with mice not injected with tumor cells and untreated", "procedure": "as §1, §2"}, "[6]": {"test_system": "skin graft from donor B6 black mice", "experiment": "Skin graft from donor B6 black mice transplanted to recipient BALB/c mice: graft rejection/survival", "type": "in vivo", "procedure": "as §2, §3"}}}
{"smiles": "CN1C(C(=O)Nc2ccccn2)=C(O)c2ccccc2S1(=O)=O", "note": "[piroxicam]", "values": [{"measurement": "regression of pre-malignant adenomas", "setting": "[1]", "result": "dramatic and sustained regression"}, {"measurement": "regression of adenomatous polyps, small pilot study", "setting": "sporadic colonic polyps", "result": "no similar regression"}]}
{"smiles": "CC(=O)Oc1ccccc1C(=O)O", "note": "[aspirin]", "values": [{"measurement": "reduction in the incidence of colorectal cancer", "setting": "colorectal cancer", "result": "50-70%"}]}
{"smiles": "CC1=C(CC(=O)O)c2cc(F)ccc2/C1=C\\c1ccc([S+](C)[O-])cc1", "note": "(stereo not drawn) [sulindac]", "values": [{"measurement": "number and size of colonic polyps", "setting": "colonic polyps", "result": "significantly decreased"}, {"measurement": "regression / progression of sporadic colorectal adenomas, multicenter study", "setting": "sporadic colonic polyps; 300 mg daily or 150 mg daily for one year, regardless of dose, nearly 100 subjects", "result": "induced regressions and prevented the progression"}, {"measurement": "regression of adenomatous polyps, small pilot study", "setting": "sporadic colonic polyps", "result": "no similar regression"}, {"measurement": "colonic mucosal apoptosis", "setting": "flat colorectal mucosa", "result": "increased levels"}, {"measurement": "apoptosis in HT-29 cells", "setting": "[2]", "result": "induction of apoptosis"}, {"measurement": "time to peak plasma concentration after dosing", "setting": "[3]", "result": "about two"}]}
{"smiles": "CS(=O)(=O)c1ccc(C2=C(c3ccccc3)C(=O)OC2)cc1", "note": "[rofecoxib]", "values": [{"measurement": "tumor growth / tumor size (FIG. 1)", "setting": "[4]; Example 1, treated for 22 days, rofecoxib chow equivalent to a human dose of 25 mg per day", "result": "significantly smaller"}, {"measurement": "tumor growth / tumor size (FIG. 4)", "setting": "[4]; Example 2, treated for 22 days, cyclosporine 20 mg/kg, rofecoxib chow equivalent to a human dose of 25 mg per day", "result": "significantly smaller"}, {"measurement": "tumor volume (TV)", "setting": "[4]; Example 3, 2×10^4 MC-26 cells s.c. in flank, 22 days, rofecoxib chow 0.01%, cyclosporine 20 mg/kg, skin graft transplanted simultaneously, control chow 920.81±511.10", "result": "394.75±273.37", "unit": "mm^3"}, {"measurement": "tumor volume / tumor growth compared with control chow", "setting": "[4]; Example 3, 22 days", "result": "markedly reduced"}, {"measurement": "growth and body weight gain (FIG. 2)", "setting": "[5]; Example 1, day 0 to day 22", "result": "continued to grow and gained weight similarly to the control group"}, {"measurement": "growth and body weight gain", "setting": "[5]; Example 2, 22 days", "result": "continued to grow and gained weight similarly to the control group"}, {"measurement": "skin graft rejection (FIG. 3)", "setting": "[6]; Example 2, 22 days, cyclosporine 20 mg/kg, rofecoxib chow equivalent to a human dose of 25 mg per day", "result": "rejected the skin graft"}, {"measurement": "skin graft survival at day 15", "setting": "[6]; Example 3, day 15, cyclosporine 20 mg/kg, rofecoxib chow 0.01%, control group 0%", "result": 0, "unit": "%"}, {"measurement": "time by which the skin graft had failed", "setting": "[6]; Example 3, rofecoxib chow 0.01%", "result": "≤ 11", "unit": "days"}]}
